Assay results as given in patent US7449463B2, “Morpholinyl containing benzimidazoles as inhibitors of respiratory syncytial virus replication” (Tibotec Pharmaceuticals Ltd., priority 2003, dated 2008).

Tests used:
[1] = test system: Respiratory Syncytial Virus; experiment: microbe, parasite or virus in culture; assay type: cell-based; conditions: human respiratory syncytial virus
In short: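 HeLa cells infected with ~100 TCID50 RSV in Eagle's Basal Medium with 5% FCS, five-fold compound dilutions, 37° C, 5% CO2 for 7 days. Viability by MTT (A540 minus A690); EC50 for protection against cytopathic effect and CC50 from mock-infected wells, SI = CC50/EC50.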

[2] = 168 h, RSV-infected HeLa cells, MTT readout seven days after infection, −log of EC50 in molar units
[3] = pEC50 (−log of EC50 when expressed in molar units), protection against RSV cytopathology

| Structure (SMILES) | melting point | EC50 [1, 3] | EC50 [1, 2] |
| --- | --- | --- | --- |
| Cc1cc(C)c2nc(N(CC(C)N3CCOCC3)C3CCNCC3)n(Cc3nc(C)ccc3O)c2c1 (centres unmarked) [Compound 161, 2-[4,6-dimethyl-2-(2-morpholin-4-ylpropyl-piperidin-4-ylamino)-benzoimidazol-1-ylmethyl]-6-methyl-pyridin-3-ol] | 223 °C | – | 2.51 nM |
| Cc1cc(C)cc(NCc2ccc3nc(NC4CCNC(CCN5CCOCC5)C4)n(Cc4nc(C)ccc4O)c3c2)c1 (centres unmarked) [Compound 163, 2-{6-[(3,5-dimethyl-phenylamino)-methyl]-2-[2-(2-morpholin-4-yl-ethyl)-piperidin-4-ylamino]-benzoimidazol-1-ylmethyl}-6-methyl-pyridin-3-ol] | 150 °C | – | 12.6 nM |
| Cc1ccc(O)c(Cn2c(NC3CCNC(CCN4CCOCC4)C3)nc3ccc(CCc4ccccc4)cc32)n1 (centres unmarked) [Compound 165, 6-methyl-2-{2-[2-(2-morpholin-4-yl-ethyl)-piperidin-4-ylamino]-6-phenethyl-benzoimidazol-1-ylmethyl}-pyridin-3-ol] | 159 °C | – | 126 nM |
| Cc1ccc(O)c(Cn2c(NC3CCNC(CCN4CCOCC4)C3)nc3ccc(C=Cc4ccccc4)cc32)n1 (centres unmarked) [Compound 169, 6-methyl-2-{2-[2-(2-morpholin-4-yl-ethyl)-piperidin-4-ylamino]-6-styryl-benzoimidazol-1-ylmethyl}-pyridin-3-ol] | 224 °C | – | 631 nM |
| Cc1cc(C)c2nc(N(CCN3CCOCC3)C3CCNCC3)n(Cc3nc(C)ccc3O)c2c1 [Compound 170, 2-[4,6-dimethyl-2-(2-morpholin-4-ylethyl-piperidin-4-ylamino)-benzoimidazol-1-ylmethyl]-6-methyl-pyridin-3-ol] | 237 °C | – | 794 nM |
| Cc1cc(C)cc(NCc2ccc3nc(NCC(O)CN4CCOCC4)n(Cc4nc(C)ccc4O)c3c2)c1 (centres unmarked) [Compound 171, 2-[6-[(3,5-dimethyl-phenylamino)-methyl]-2-(2-hydroxy-3-morpholin-4-yl-propyl-amino)-benzoimidazol-1-ylmethyl]-6-methyl-pyridin-3-ol] | 198 °C | – | 2.51 nM |
| Cc1cc(C)cc(NCc2ccc3nc(NCCCN4CC(C)OC(C)C4)n(Cc4nc(C)ccc4O)c3c2)c1 (centres unmarked) [Compound 172, 2-{2-[3-(2,6-dimethyl-morpholin-4-yl)-propylamino]-6-[(3,5-dimethyl-phenylamino)-methyl]-benzoimidazol-1-ylmethyl}-6-methyl-pyridin-3-ol] | 192 °C | – | 15.8 nM |
| Cc1cc(C)c2nc(NCCCN3CCOC(CC(N)=O)C3)n(Cc3nc(C)ccc3O)c2c1 (centres unmarked) [Compound 191, 2-(4-{3-[1-(3-Hydroxy-6-methyl-pyridin-2-ylmethyl)-4,6-dimethyl-1H-benzoimidazol-2-ylamino]-propyl}-morpholin-2-yl)-acetamide] | 148 °C | – | 158 nM |
| Cc1ccc(CCO)c(NCc2ccc3nc(NCCCN4CCOCC4)n(Cc4ncccc4O)c3c2)c1 [Compound 192, 2-[6-{[2-(2-Hydroxy-ethyl)-5-methyl-phenylamino]-methyl}-2-(3-morpholin-4-yl-propylamino)-benzoimidazol-1-ylmethyl]-pyridin-3-ol] | 192 °C | 0.501 nM | – |
| Cc1ccc(CCCO)c(NCc2ccc3nc(NCCCN4CCOCC4)n(Cc4cc(Br)ccc4O)c3c2)c1 [Compound 201, 4-Bromo-2-[6-{[2-(3-hydroxy-propyl)-5-methyl-phenylamino]-methyl}-2-(3-morpholin-4-yl-propylamino)-benzoimidazol-1-ylmethyl]-phenol] | 134 °C | 0.501 nM | – |
| Cc1ccc(CCCO)c(NCc2ccc3nc(NCCCN4CCOCC4)n(Cc4cccc5c4ncn5C)c3c2)c1 [Compound 218, 3-(4-Methyl-2-{[3-(1-methyl-1H-benzoimidazol-4-ylmethyl)-2-(3-morpholin-4-yl-propylamino)-3H-benzoimidazol-5-ylmethyl]-amino}-phenyl)-propan-1-ol] | 198 °C | 2.51 nM | – |
| COc1ccc(C)nc1Cn1c(NCCCN2CCOCC2)nc2ccc(CNc3cc(C)ccc3CCCO)cc21 [Compound 219, 3-(2-{[3-(3-Methoxy-6-methyl-pyridin-2-ylmethyl)-2-(3-morpholin-4-yl-propylamino)-3H-benzoimidazol-5-ylmethyl]-amino}-4-methyl-phenyl)-propan-1-ol] | 132 °C | 2.51 nM | – |
| Cc1ccc(CCCO)c(NCc2ccc3nc(NCCCN4CCOCC4)n(Cc4cccc5cccnc45)c3c2)c1 [Compound 234, 3-(4-Methyl-2-{[2-(3-morpholin-4-yl-propylamino)-3-quinolin-8-ylmethyl-3H-benzoimidazol-5-ylmethyl]-amino}-phenyl)-propan-1-ol] | 165 °C | 5.01 nM | – |
| Cc1ccc(CCCO)c(NCc2ccc3nc(NCCCN4CCOCC4)n(Cc4cccc(Br)n4)c3c2)c1 [Compound 267, 3-(2-{[3-(6-Bromo-pyridin-2-ylmethyl)-2-(3-morpholin-4-yl-propylamino)-3H-benzoimidazol-5-ylmethyl]-amino}-4-methyl-phenyl)-propan-1-ol] | 141 °C | 50.1 nM | – |

The next lines start with results.

| melting point | EC50 [1, 3] | Structure (SMILES) | EC50 [1, 2] |
| --- | --- | --- | --- |
| 172 °C | – | Cc1cc(C)cc(NC(=O)c2ccc3nc(NCCCN4CCOCC4)n(Cc4nc(C)ccc4O)c3c2)c1 [Compound 160] | > 10000 nM |
| 162 °C | 0.501 nM | Cc1ccc(CCO)c(NCc2ccc3nc(NCCCN4CCOCC4)n(C4CCCc5nc(C)c(C)nc54)c3c2)c1 (centres unmarked) [Compound 193, 2-(2-{[3-(2,3-Dimethyl-5,6,7,8-tetrahydroquinoxalin-5-yl)-2-(3-morpholin-4-yl-propylamino)-3H-benzoimidazol-5-ylmethyl]-amino}-4-methyl-phenyl)-ethanol] | – |
| 109 °C | 1.58 nM | Cc1cc(C)cc(N(CCCC(N)=O)Cc2ccc3nc(NCCCN4CCOCC4)n(C4CCCc5nc(C)c(C)nc54)c3c2)c1 (centres unmarked) [Compound 213, 4-{(3,5-Dimethyl-phenyl)-[3-(2,3-dimethyl-5,6,7,8-tetrahydro-quinoxalin-5-yl)-2-(3-morpholin-4-yl-propylamino)-3H-benzoimidazol-5-ylmethyl]-amino}-butyramide] | – |
| 154 °C | 3.16 nM | Cc1cc(C)cc(N(CCCC(N)=O)Cc2ccc3nc(NCCCN4CCOCC4)n(Cc4cccc5cccnc45)c3c2)c1 [Compound 223, 4-{(3,5-Dimethyl-phenyl)-[2-(3-morpholin-4-yl-propylamino)-3-quinolin-8-ylmethyl-3H-benzoimidazol-5-ylmethyl]-amino}-butyramide] | – |
| 206 °C | 3.98 nM | Cc1cc(C)cc(N(CCCC(N)=O)Cc2ccc3nc(NCCCN4CCOCC4)n(Cc4cccc5c4ncn5C)c3c2)c1 [Compound 230, 4-{(3,5-Dimethyl-phenyl)-[3-(1-methyl-1H-benzoimidazol-4-ylmethyl)-2-(3-morpholin-4-yl-propylamino)-3H-benzoimidazol-5-ylmethyl]-amino}-butyramide] | – |
| 140 °C | 5.01 nM | Cc1cc(C)cc(N(CCO)Cc2ccc3nc(NCCCN4CCOCC4)n(Cc4nc(C)c(C)nc4C)c3c2)c1 [Compound 233, 2-{(3,5-Dimethyl-phenyl)-[2-(3-morpholin-4-yl-propylamino)-3-(3,5,6-trimethyl-pyrazin-2-ylmethyl)-3H-benzoimidazol-5-ylmethyl]-amino}-ethanol] | – |
| 120 °C | 25.1 nM | Cc1ccc(CCCO)c(NCc2ccc3nc(NCCCN4CCOCC4)n(Cc4nc(C)c(C)nc4C)c3c2)c1 [Compound 255, 3-(4-Methyl-2-{[2-(3-morpholin-4-yl-propylamino)-3-(3,5,6-trimethyl-pyrazin-2-ylmethyl)-3H-benzoimidazol-5-ylmethyl]-amino}-phenyl)-propan-1-ol] | – |
| 82 °C | 31.6 nM | Cc1cc(C)cc(N(CCCC(N)=O)Cc2ccc3nc(NCCCN4CCOCC4)n(Cc4cccc(Br)n4)c3c2)c1 [Compound 261, 4-[[3-(6-Bromo-pyridin-2-ylmethyl)-2-(3-morpholin-4-yl-propyl-amino)-3H-benzoimidazol-5-ylmethyl]-(3,5-dimethyl-phenyl)-amino]-butyramide] | – |
